This is an account of results in patent US20260101887A1, “AN EMULSIFIABLE CONCENTRATE HAVING A LACTONE-BASED SOLVENT SYSTEM” (priority 2022, published 2026).

For data set [1] the following is noted: solvent in water, visual assessment of undissolved solvent. The method, then:
Herein, various amounts of solvent and water were mixed with vigorous shaking in a glass-stoppered graduated cylinder or separating funnel, followed by standing for at least 30 min to enable separation. […] This method can be repeated with various amounts of solvent and water to enable the determination of the water-solubility of the solvent.

The subject of a further data set is Abutilon theophrasti. Description: Rate of penetration measured by Fluorescence Index enhancement (PS II inhibitor Na Bentazone into leaf). It is filed as in vivo. The arrangement: scale not given here. Particulars: Na B + E + S: 0.64% w/w Na Bentazone, 0.1% emulsifier, 0.9% solvent in CIPAC D water; two 5 μl droplets on leaf, 1 h. The text has this: PS II inhibitors effectively block the chlorophyll photosynthetic pathways within the leaf, resulting in enhanced fluorescence from the non-adsorbed incident light. The resulting emitted light can be measured at selected time intervals, enabling the determination of the rate of uptake of the PS II inhibitor and thus penetration effect of the selected adjuvant.
The following experiments were on the broadleaf weed Abutilon theophrasti (EPPO code ABUTH) at a Biologische Bundesanstalt, Bundessortenamt und Chemische Industrie (BBCH) growth stage 13 to 14.
The penetration experiments are conducted via the deposition of two droplets (5 μl) of the herbicide/emulsifier/lactone-based solvent formulation onto the leaf surface. The droplets are allowed to stand on the leaf surface for 1 h, after which a fluorescence image of the exposed leaf surface is recorded using the PAM chlorophyll fluorescence imaging system (Imaging PAM, Heinz-Walz GmbH, Germany). The resulting “Total Fluorescence” and “Fluorescence Area” are then quantified via the analysis of the recorded fluorescence image using image analysis software. This enables the calculation of the “Fluorescence Index”:
The “Fluorescence Index” is a therefore a direct measurement of the penetration of the active ingredient into the plant leaf and can thus be used to measure enhanced penetration via the use of selected adjuvants. Identical experiments are conducted on 7 further leaves using the same formulation to account for biological variability and experimental error.

The next data set concerns Soya plants. Description: Phytotoxicity determination on Soya. As to conditions: 200 L/ha of 1% w/w emulsion (EC 90% w/w solvent, 10% w/w emulsifier); after 14 days; visual scale 0% to 100%. It is filed as in vivo. As for the experimental part: Soya plants grown under standard greenhouse conditions in the growth stage 13 were treated with aqueous emulsions in a spray cabin. The resulting plant spray dosage represented an application rate of 200 L/ha of 1% w/w emulsion, corresponding to the application of 2 L/ha of the emulsifiable concentrate. […] The experimental period lasted 14 days, during which time the Soya plants were given optimum watering, nutrients, and light.
An assessment of 1 to 10% phytotoxicity is the limit of acceptable plant damage by farmers.

For the compound `CCCCC1OC(=O)CC1C` (stereo not drawn) [Beta-methyl-gamma-octalactone], the Water solubility in data set [1] is recorded as no more than 0.2 % w/w.
Compound `CCCC(C)C1OC(=O)CC1C` (stereo not drawn) [Beta, delta-dimethyl- gamma-octalactone, Beta,delta-dimethyl-gamma-octalactone] showed a Water solubility in data set [1] of no more than 0.2 % w/w.
For the compound `CCCCCC1CCC(=O)O1` (centres unmarked) [Gamma-nonalactone], the Water solubility in data set [1] was 0.2 % w/w. In addition, in the data set with Abutilon theophrasti, the “Fluorescence Index” value is 16.44. In the data set on Soya plants, this compound showed a phytotoxicity of 0%.
Take `CCCCCCCCCC(=O)N(C)C` [Dimethyl decanamide, reference compound]: in the data set with Soya plants, the phytotoxicity turned out to be 50%.
Take `CCCCC1CCC(=O)O1` (centres unmarked) [Gamma-octalactone]: the Water solubility in data set [1] amounted to 0.8 % w/w. Also, the “Fluorescence Index” value with Abutilon theophrasti was determined as 8.80.
In data set [1], `CC1CCC(=O)O1` (centres unmarked) [Gamma-valerolactone] returned a Water solubility of 100 % w/w. For the same compound, the “Fluorescence Index” value with Abutilon theophrasti was 4.85.
For `CCCCCCCC1CCCC(=O)O1` (centres unmarked) [Delta-dodecalactone] the same measures were 0.07 % w/w and 15.21.
Compound `CCCCCCC1CCC(=O)O1` (centres unmarked) [Gamma-decalactone] showed a Water solubility in data set [1] of 0.1 % w/w. The “Fluorescence Index” value in the data set on Abutilon theophrasti is listed as 14.13.
Regarding `CCCCC1CCCC(=O)O1` (centres unmarked) [Delta-nonalactone], the Water solubility in data set [1] is listed as 1.2 % w/w.
In turn, `CCCCCC1CCCC(=O)O1` (centres unmarked) [Delta-decalactone] returned a Water solubility in data set [1] of 0.4 % w/w. Besides, in the data set with Abutilon theophrasti, the “Fluorescence Index” value is 9.66.
`CCCCCCCCC1CCCC(=O)O1` (centres unmarked) [Delta-tridecalactone]: in data set [1], the Water solubility is less than 0.1 % w/w.
Consider `CCCC(C)C1CCC(=O)O1` (centres unmarked) [Delta-methyl-gamma- octalactone, Delta-methyl-gamma-octalactone], for which the Water solubility in data set [1] is no more than 0.2 % w/w.
With `CCCCCCCC1CCC(=O)O1` (centres unmarked) [Gamma-undecalactone], the “Fluorescence Index” value with Abutilon theophrasti is on record as 11.67.
On to `CCCCCCCCC1CCC(=O)O1` (centres unmarked) [Gamma-dodecalactone], for which, in data set [1], the Water solubility is listed as less than 0.02 % w/w.
Turning to `CCC1CCC(=O)O1` (centres unmarked) [Gamma-hexalactone], the Water solubility in data set [1] is listed as 8 % w/w. For the same compound, the “Fluorescence Index” value with Abutilon theophrasti is recorded as 6.11.
